Experimental findings from publication PMC10683472, “Deep Learning-Driven Library Design for the De Novo Discovery of Bioactive Thiopeptides” (ACS Central Science, 2023) are described below.

Like-named read-outs stand apart in the source and are kept apart here. Where a SMILES comes first, the peptide text is derived from it. Where no end group is shown, it is not given here. pyridine‑bisazole = not defined here

Data set [1] deals with T1, IRAK4 (Homo sapiens, UniProt Q9NWZ3).
T1 sequence (Q9NWZ3 1-460): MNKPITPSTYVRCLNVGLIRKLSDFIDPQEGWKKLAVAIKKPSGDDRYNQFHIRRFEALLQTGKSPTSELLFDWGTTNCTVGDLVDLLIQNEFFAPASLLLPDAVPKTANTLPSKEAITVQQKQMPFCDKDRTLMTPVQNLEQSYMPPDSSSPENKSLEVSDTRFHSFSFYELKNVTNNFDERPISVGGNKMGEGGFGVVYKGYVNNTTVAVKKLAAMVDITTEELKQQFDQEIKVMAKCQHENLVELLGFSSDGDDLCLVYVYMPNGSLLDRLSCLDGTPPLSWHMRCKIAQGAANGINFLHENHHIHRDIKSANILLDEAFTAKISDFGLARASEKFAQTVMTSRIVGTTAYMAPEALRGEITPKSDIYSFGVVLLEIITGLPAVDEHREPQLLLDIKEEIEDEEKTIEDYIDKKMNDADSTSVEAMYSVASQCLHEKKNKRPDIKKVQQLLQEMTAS
The data set is described as follows: mRNA display affinity selection against IRAK4, NGS abundance. The format is binding. Set-up: acids 1-460; NP_057207.2) was purchased from Carna Biosciences; purchased Carna Biosciences (Kobe, Japan). The following applies: IRAK4 selection, NGS abundance rank.

For data set [2], the target named is T1, IRAK4. The data set can be described thus: Single-round mRNA display binding assay (qPCR), IRAK4. The arrangement: acids 1-460; NP_057207.2) was purchased from Carna Biosciences; purchased Carna Biosciences (Kobe, Japan). Conditions: ratio of cDNA recoveries (qPCR), IRAK4 pulldown over beads only, single-round selection.
Data set [3] concerns HaloTag expressing HEK293H cells. The data set can be described thus: Chloroalkane penetration assay (CAPA). The following applies: 18 h, chloroalkane tag-containing derivatives IR1-ct and IR5-ct. The source says: The role of IRAK4 as a kinase acting downstream of TLR and interleukin-1 receptors to phosphorylate IRAK1 and transduce immunological signals is well-established.[37] […] Therefore, we investigated the inhibitory activity of thiopeptides IR1, 5, 8, and 11. […] We first prepared chloroalkane tag-containing derivatives, IR1-ct and IR5-ct (S.I. 5.3), and utilized them in a chloroalkane penetration assay[49] to test their cellular uptake. […]

The nature of data set [4]: Serum stability assay. The format is in vitro ADME. Conditions: pH 7.6; human serum, 37 °C, LC/MS; read-out: serum stability τ1/2 (converted).
Data set [5] concerns the target T1, IRAK4. The data set is described as follows: biochemical.
Data set [6] deals with THP1-XBlue cells. The data set can be described thus: Cell viability with Cell Counting Kit-8. As to the method: (§1) 2.13. NF-kB signaling pathway inhibition assay
(§2) THP-1 Cellular Assay. THP1-XBlue cells containing an NF-kB-inducible secreted embryonic alkaline phosphatase (SEAP) reporter gene (InvivoGen) were seeded to 96-well assay plates (10^5 cells/well) with RPMI 1640 culture medium containing 10% fetal calf serum. The cells were pre-treated with various concentration of analyte thiopeptide inhibitor in 0.1% DMSO and incubated at 37 °C for 6 h. LPS-EK (30 ng/mL, InvivoGen) was subsequently added to activate the NF-kB signalling for 20 h. To quantitate SEAP activity, supernatants were harvested (300 g, 5min) and mixed with Quanti-Blue (InvivoGen) detection reagent following the manufacturer’s instructions.
(§3) Cells were assayed with cell counting kit-8 in parallel to rule out potential cytotoxicity. The plates

For data set [7], the target named is T2, Biotinylated IRAK4 (kinase domain, amino acids 1-460; NP_057207.2) (Homo sapiens, UniProt Q9NWZ3).
T2 construct: acids 1-460; NP_057207.2) was purchased from Carna Biosciences; purchased Carna Biosciences (Kobe, Japan)
T2 sequence (Q9NWZ3 1-460): T1 sequence (Q9NWZ3 1-460)
The data set is described as follows: Surface plasmon resonance binding to IRAK4. From the text: Reagents were purchased from Nacalai Tesque, Wako Pure Chemical Industries, Sigma-Aldrich Japan, or TCI Chemicals and were used as received. Biotinylated IRAK4 (kinase domain, amino acids 1-460; NP_057207.2) was purchased from Carna Biosciences (Kobe, Japan). Recombinant human TLR10 Fc Chimera protein (extracellular domain, amino acid 20-576; Q9BXR5) was purchased from R&D system (#6619-TR-050). Anti-HA magnetic beads were from Pierce Thermo Fisher Scientific (#88836). Magnetic beads with immobilized streptavidin were from Invitrogen (Dynabeads Streptavidin C1, # 65001). Magnetic beads with immobilized streptavidin were from Invitrogen (Dynabeads Streptavidin M280, #11206D).
Protein purification and synthesis of Streptomyces lactacystinaeus tRNAGlu were done as previously described.1–3 Protein concentration measurements were carried out on a Nanodrop 2000c spectrophotometer (Thermo Scientific) equipped with a 5 mm pathlength quartz cuvette using extinction coefficient values calculated with ExPASy ProtParam tool (https://web.expasy.org/protparam).
Biochemical measurements (sections 2.10 – 2.14) were performed in triplicate or more. Most experiments were reproduced to an analogous outcome at least once. In the cases where the determination of biophysical parameters involved cell assay (CP50 and IC50), reported are standard errors of the fit; otherwise, error bars are standard deviations.
RNA extracted from the gel with 300 mM NaCl were collected by ethanol precipitation followed by centrifugation (15300 g for 15 min) and dissolved in water for storage. tRNAini was aminoacylated with eFx using biotin-Phe-CME as a substrate. tRNAini (25 µM) and eFx (25 µM) were incubated with biotin-Phe-CME (5 mM) in HEPES-KOH buffer (50 mM; pH 7.5) containing 600 mM MgCl2 on ice for 2 h. The reactions were stopped with the addition of 300 mM NaOAc (pH 5.2), and precipitated with ethanol. Precipitated RNA was recovered by centrifugation (15300 g for 15 min). The pellet was washed with 70% ethanol in water (v/v) containing 100 mM NaOAc (pH 5.2) and used in translation.
2.10. Surface plasmon resonance
Binding affinities between the thiopeptides and IRAK4/TLR10 were measured with a Biacore 8K instrument (GE Healthcare) at 25 °C. The assay buffer for IRAK4 binding analysis contained 50 mM Tris (pH 7.5), 150 mM NaCl, 10 mM MgCl2, 0.05% (v/v) tween-20 and 0.1% (v/v) DMSO. The […]
Biotinylated IRAK4 was immobilized on a Biacore CAP chip (GE Healthcare) to a surface density […]
step was allowed to proceed for 480 s. Kinetic parameters and affinities of the interaction were […]
provided by the manufacturer. The interaction sensorgrams were measured as single -cycle […]
Kinetic parameters and affinities of the
Evaluation Software v.3.0 (GE Healthcare).

For data set [8], the system named is lipopolysaccharide-induced NF-κB signaling in THP1-XBlue cells. The data set can be described thus: NF-kB signaling pathway inhibition assay (SEAP reporter, LPS-stimulated). The format is cell-based. The following applies: THP1-XBlue monocytes, 6 h pre-treatment, LPS-EK 30 ng/mL, SEAP read 20 h after induction. Here is the method:
as §1, §2, §3

For data set [9], the target named is T3, interleukin-1 receptor-associated kinase 4 (UniProt Q9NWZ3 1-460).
T3 sequence (looked up): T1 sequence (Q9NWZ3 1-460)
The data set can be described thus: cell-based or functional assay.

The target of data set [10] is T3, interleukin-1 receptor-associated …. The data set is described as follows: SPR; synthetic thiopeptides and target protein; conditions in S.I. 2.10 (not shown). Conditions: both partners purified.
Data set [11] has as its target T4, toll-like receptor 10, extracellular domain (UniProt Q9BXR5 20-576).
T4 construct: toll-like receptor 10 (TLR10), extracellular domain; The extracellular domain is stated for the SPR experiment; also called TLR10; TLR10 cell surface receptor
T4 sequence (looked up): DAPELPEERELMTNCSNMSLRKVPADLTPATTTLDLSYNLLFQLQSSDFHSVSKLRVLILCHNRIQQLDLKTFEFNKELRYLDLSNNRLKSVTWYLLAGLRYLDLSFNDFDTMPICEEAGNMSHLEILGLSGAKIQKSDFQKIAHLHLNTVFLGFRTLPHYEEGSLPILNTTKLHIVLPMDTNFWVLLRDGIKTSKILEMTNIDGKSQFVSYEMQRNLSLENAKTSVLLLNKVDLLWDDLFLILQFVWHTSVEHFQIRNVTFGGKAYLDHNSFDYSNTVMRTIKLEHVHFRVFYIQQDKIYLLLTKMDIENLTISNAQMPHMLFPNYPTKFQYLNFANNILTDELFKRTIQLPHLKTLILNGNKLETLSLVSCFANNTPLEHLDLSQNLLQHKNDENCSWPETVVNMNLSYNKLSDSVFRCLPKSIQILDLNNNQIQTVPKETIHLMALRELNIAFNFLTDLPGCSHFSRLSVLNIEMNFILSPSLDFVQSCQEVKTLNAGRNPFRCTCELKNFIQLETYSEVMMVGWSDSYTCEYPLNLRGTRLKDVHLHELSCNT
The data set is described as above. Conditions: both partners purified.

Consider `C=C1NC(=O)C(=CC)NC(=O)[C@H](Cc2c[nH]c3ccccc23)NC(=O)[C@H](Cc2c[nH]cn2)NC(=O)[C@H](Cc2c[nH]c3ccccc23)NC(=O)[C@H]([C@@H](C)O)NC(=O)[C@H]([C@@H](C)CC)NC(=O)[C@H](Cc2ccccc2)NC(=O)[C@H](CCC(N)=O)NC(=O)[C@H](CCCNC(=N)N)NC(=O)[C@H](CCCCN)NC(=O)[C@H](CCCC)NC(=O)[C@H](CO)NC(=O)[C@H](Cc2c[nH]c3ccccc23)NC(=O)c2ccc(-c3nc(C(=O)OC)cs3)nc2-c2csc1n2` [IR1] (HELM PEPTIDE1{W.S.[Nle].K.R.Q.F.I.T.W.H.W.[CC=C(N[*:1])C(=O)[*:2]]}|CHEM1{[C=C(N[*:2])c1nc(-c2nc(-c3nc(C(=O)OC)cs3)ccc2C(=O)[*:1])cs1]}$PEPTIDE1,CHEM1,1:R1-1:R1|PEPTIDE1,CHEM1,13:R2-1:R2$$$V2.0; bridges inferred), for which, in [1], the “rank in pulldown(+)” value was 3 and the “rank in pulldown(–)” value is 1. In addition, the “display P/N ratio” value in data set [2] came to 1829. Further, in data set [3], the “CP50 (midpoint internalization concentration)” value is 2.4 µM. Moreover, the half-life at 10 µM in [4] is 3.9 ± 0.1 h. Moreover, half-maximal inhibition in [5] (IC50) required 3.1 ± 0.3 µM. The “cytotoxicity (Cell Counting Kit-8)” value in data set [6] is given as “not cytotoxic”. In [7], the koff amounted to 0.00054 s⁻¹ and the kon was 2930 M⁻¹ s⁻¹. Besides, in [8], the IC50 turned out to be 7 µM.
On to `C=C1NC(=O)[C@H](CCCCN)NC(=O)[C@H](Cc2ccc(O)cc2)NC(=O)[C@H]([C@@H](C)CC)NC(=O)[C@H](CCCNC(=N)N)NC(=O)[C@H](CCCNC(=N)N)NC(=O)[C@H](CCCCN)NC(=O)[C@H](Cc2ccccc2)NC(=O)[C@H](CC(C)C)NC(=O)[C@H](CCSC)NC(=O)[C@H](CO)NC(=O)[C@H](Cc2c[nH]c3ccccc23)NC(=O)c2ccc(-c3nc(C(=O)OC)cs3)nc2-c2csc1n2` [IR5] (HELM PEPTIDE1{W.S.M.L.F.K.R.R.I.Y.K}|CHEM1{[C=C(N[*:2])c1nc(-c2nc(-c3nc(C(=O)OC)cs3)ccc2C(=O)[*:1])cs1]}$PEPTIDE1,CHEM1,1:R1-1:R1|PEPTIDE1,CHEM1,11:R2-1:R2$$$V2.0; bridges inferred), for which, in data set [1], the “rank in pulldown(+)” value is reported as 1 and the “rank in pulldown(–)” value came out at 2. In addition, the “display P/N ratio” value in [2] is on record as 376. Besides, the “CP50 (midpoint internalization concentration)” value in data set [3] was found to be 14.8 µM. In [4], the half-life at 10 µM is 1.3 ± 0.02 h. In addition, the IC50 in data set [5] amounted to 5.1 ± 0.4 µM. Further, the “cytotoxicity (Cell Counting Kit-8)” value in [6] (at the tested concentrations) is “not cytotoxic”. In data set [7] (SPR, IRAK4, read-out: koff), the koff stood at 0.0037 s⁻¹. The kon in [7] (SPR, IRAK4, read-out: kon) is 2.92e+06 M⁻¹ s⁻¹. Also, in data set [8], the IC50 came to 7.8 µM.

B1: thiopeptide IR5 (synthetic) (peptide)
chain: SWSMLFKRRIYKSCSC
modifications: bridge (positions not given here) via pyridine‑bisazole; reading uncertain; also: macrocyclic lactazole-like thiopeptide with pyridine-bisazole moiety, places not given here, dehydroamino acids, places not given here
As for B1, in [9], the “IC50, lipopolysaccharide-induced NF-κB signaling (secreted alkaline phosphatase reporter) in THP1-XBlue monocytes” value was 7.8 µM. In data set [10], the Kd is 0.0013 µM.

B2: thiopeptide TL20 (synthetic) (peptide)
chain: SWSLELSRVNVVIHSCSC
modifications: bridge (positions not given here) via pyridine‑bisazole; reading uncertain; also: macrocyclic lactazole-like thiopeptide with pyridine-bisazole moiety, places not given here, dehydroamino acids, places not given here
The molecule B2 returned a Kd in data set [11] of 0.3 µM.
